Data reported in ChEMBL document CHEMBL1128135, “Synthesis and biological evaluation of new arylthiophene analogs of DuP 753” (Bioorg Med Chem Lett, 1995).

Organism: Oryctolagus cuniculus
Experiment: In vitro antagonist activity was determined by the ability to antagonize the contractile response to angiotensin II in the isolated rabbit aortic strips
Type: functional
Details: Aorta

Structure (SMILES): CCCCc1nc(Cl)c(C=O)n1Cc1ccc(-c2ccccc2-c2nn[nH]n2)s1
- IC50: 330 nM

Structure (SMILES): CCCCc1nc(Cl)c(CO)n1Cc1ccc(-c2ccccc2-c2nn[nH]n2)s1
- IC50: 328 nM

Structure (SMILES): CCCCc1nc(Cl)c(C=O)n1Cc1ccc(-c2ccccc2C(=O)O)s1
- IC50: 2000 nM

Structure (SMILES): CCCCc1nc(Cl)c(CO)n1Cc1ccc(-c2ccccc2-c2nnn[nH]2)cc1 [LOSARTAN]
- IC50: 6.1 nM

Structure (SMILES): CCCCc1nc(Cl)c(CO)n1Cc1ccc(-c2ccccc2C(=O)O)s1
- IC50: 4160 nM

Structure (SMILES): CCCCc1nc(Cl)c(CO)n1Cc1ccc(-c2ccccc2C(=O)O)cc1
- IC50: 120 nM
